{"source": "patent US11020394B2", "about": "“Compositions and methods for treating inflammatory bowel disease using a combination therapy of small molecule inhibitors of C—C chemokine receptor type 9 (CCR9) and anti-α4β7 integrin blocking antibodies” (ChemoCentryx, Inc., priority 2014, dated 2021)", "system": "in vitro differentiated human CCR9+α4β7+ T cells", "assay": "Static binding (adhesion) assay of in vitro differentiated T cells on MAdCAM-1-Fc coated plates", "type": "cell-based", "details": "1 μM CCX507, with hCCL25, MAdCAM-1-Fc coated plates, FIG. 1B", "experimental": "Adhesion assays were performed as follows. Human lymphocytes were isolated from total PBMCs and activated with α-CD3ε/α-CD28 (1 μg/mL; R&D Systems) in the presence of 1 μM retinoic acid (Sigma) and 1 ng/mL human IL12 (R&D Systems). In vitro activated T cells were further expanded for 5 days in the presence of 1 μM retinoic acid (RA) and 1 ng/mL human IL12. The expanded cells were stained with an anti CCR9 APC conjugated antibody (Cat. No. 248621; R&D Systems) and a conjugated anti-α4β7 integrin antibody (Act-1). The stained cells were analyzed by flow cytometry. Expression of CCR9 and α4β7 integrin in the expanded T cells was depicted as a 2-parameter scatterplot in FIG. 1A.\nIn vitro activated T cells were added to 96-well plate coated overnight with 0.3 μg/mL MAdCAM-1-Fc fusion protein (R&D Systems) in the presence of the following conditions: DMSO only, 500 ng human CCL25 (hCCL25; a CCR9 ligand) only, 1 μM CCX507 (a CCR9 small molecule inhibitor) only, or 500 ng hCCL25 and 1 μM CCX507. Adherent cells were quantified using CyQUANT® Cell Proliferation Assays (Thermo Fisher)."}
{"smiles": "Cc1cc(NS(=O)(=O)c2ccc(C(C)(C)C)c(F)c2)n(-c2ccc(N)c3ncccc23)n1", "note": "[CCX507]", "values": [{"measurement": "binding of RA-differentiated human T cells to MAdCAM-1 (adherent cells quantified using CyQUANT, RFU)", "value": "limits the binding of RA-differentiated human T cells to MAdCAM-1"}]}
